From patent US20090317335A1, “Hybrid Nanomaterials as Multimodal Imaging Contrast Agents” (priority 2006, published 2009)

Assay: MR relaxivity (T1/T2) on 3.0 Tesla MRI scanner
Assay type: physicochemical
Experimental: Thermogravimetric analysis (TGA) was performed using a Shimadzu TGA-50 (Shimadzu Corp., Kyoto, Japan) equipped with a platinum pan and heated at a rate of 3° C./min under air. A Hitachi 4700 field emission scanning electron microscope (SEM; Hitachi Ltd., Tokyo, Japan) and a JEM 100CX-II transmission electron microscope (JEOL Ltd., Tokyo, Japan) were used to determine particle size and morphology. Scanning electron microscope (SEM) images of the nanoparticles were taken on glass substrate. A Cressington 108 Auto Sputter Coater (Cressington Scientific Instruments, Ltd., Watford, United Kingdom) equipped with an Au/Pd (80/20) target and M™-10 thickness monitor was used to coat the sample with approximately 5 nm of conductive layer before taking SEM images. Gd^3+ ion concentration was measured on a SpectraSpan7 Direct Current Plasma (DCP) Spectrometer (Applied Research Laboratories, La Brea, Calif., United States of America). […] T1 and T2 values were determined on a Bruker 3.0 Tesla full body Magnetic Resonance Imaging (MRI) scanner (Bruker BioSpin MRI GmbH, Ettlingen, Germany). […] Fluorescence microscope images were taken with a Zeiss Axiovert 100 TV Fluorescence Microscope (Carl Zeiss, Inc., Thornwood, N.Y., United States of America) using a FITC filter. T1 values were obtained using the standard inversion-recovery method, whereas T2 values were determined using spin-echo pulse sequences. […]

Substance	longitudinal relaxivity (r1) (per mM of Gd^3+ (metal ion), 3.0 Tesla scanner, water or 0.1% Xanthan gum)	r1 (molecular complex, for comparison with 1)
bis(aminopropyl-triethoxysilyl)diethylenetriamine pentaacetate gadodiamide [Gd—Si-DTPA complex]	6.2 s⁻¹	
gadolinium (aminopropyltrimethoxysilyl) diethylenetriamine tetraacetate [Gd—Si-DTTA complex]		6.8 s^−1 mM^−1 Gd^3+
